Experiments:
Assay type in all cases: cell-based
[1] = target: oncogenic mutant K-Ras (mGFP-K-RasG12 V) (Homo sapiens, UniProt P01116, G12V); assay: K-Ras PM mislocalization; conditions: for K-Ras PM mislocalization Emax: maximum extent of mislocalization of K-Ras from the PM to the endomembrane, MDCK cells; for IC50: read-out: K-Ras PM mislocalization IC50, mGFP-K-RasG12V in intact MDCK cells
SW620 = assay: MTT cytotoxicity, SW620; conditions: read-out: MTT cytotoxicity SW620 IC50; colon cancer cell line SW620
SW620 Ad300 = assay: MTT cytotoxicity, SW620 Ad300; conditions: for FR (fold resistance): IC50 ratio for SW620 Ad300 versus SW620; for IC50: read-out: MTT cytotoxicity SW620 Ad300 IC50, P-gp overexpressing daughter cell line SW620 Ad300; for FR (fold resistance), control study: SW620 Ad300 versus SW620
A549 versus H522 = assay: Cytotoxicity toward K-Ras mutated versus non-mutated lung cancer cells; conditions: human lung cancer cells

Chain of oncogenic mutant K-Ras (mGFP-K-RasG12 V) (P01116 1-188 isoform P01116-2 G12V): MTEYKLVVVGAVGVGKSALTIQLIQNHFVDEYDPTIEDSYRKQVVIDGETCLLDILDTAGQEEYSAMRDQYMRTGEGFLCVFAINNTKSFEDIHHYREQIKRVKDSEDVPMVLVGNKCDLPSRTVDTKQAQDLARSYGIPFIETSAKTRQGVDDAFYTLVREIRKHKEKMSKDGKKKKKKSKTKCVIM

Compound | K-Ras PM mislocalization Emax [1] | IC50 [1] [µM] | IC50 (SW620) [µM] | FR (fold resistance) (SW620 Ad300) | IC50 (SW620 Ad300) [µM] | increased cytotoxicity toward K-Ras mutated A549 versus non-mutated H522 (A549 versus H522) [fold] | FR (fold resistance), control study (SW620 Ad300; coadministration with the P-gp inhibitor verapamil) | FR (fold resistance), control study (SW620 Ad300; doxorubicin alone)
CC[C@H](C)[C@@H]1OC(=O)C(C)(C)[C@@H](O)[C@@H](Cc2ccccc2)OC(=O)[C@H](C(C)C)OC(=O)[C@@H](NC(=O)c2cccc(NC=O)c2O)[C@H](C)OC1=O [compound 1, neoantimycin] | 0.60 ± 0.03 | 0.0029 ± 0.0007 | 0.06 | 3.8 | 0.23 | 50 |  | 
CC(C)[C@@H]1OC(=O)[C@@H](NC(=O)c2cccc(NC=O)c2O)[C@H](C)OC(=O)[C@H](C(C)C)OC(=O)C(C)(C)[C@@H](O)[C@@H](Cc2ccccc2)OC1=O [compound 2, neoantimycin F] | 0.56 ± 0.01 | 0.0099 ± 0.0002 | 0.16 | 3.8 | 0.61 |  |  | 
CCC(C)C1OC(=O)C(NC(=O)c2cccc(NC=O)c2O)C(C)OC(=O)C(C(C)CC)OC(=O)C(C)(C)C(O)C(Cc2ccccc2)OC1=O (stereo not drawn) [compound 3, neoantimycin G] | 0.62 ± 0.01 | 0.0079 ± 0.0005 | 0.04 |  | 0.26 |  |  | 
CC[C@H](C)[C@@H]1OC(=O)C(C)(C)C(=O)[C@@H](Cc2ccccc2)OC(=O)[C@H](C(C)C)OC(=O)[C@@H](NC(=O)c2cccc(NC=O)c2O)[C@@H](C)OC1=O [compound 4, neoantimycin H] | 0.60 ± 0.02 | 0.0064 ± 0.0005 | 0.07 | 2.7 | 0.19 |  |  | 
CCCCCC[C@H]1C(=O)O[C@H](C)[C@H](NC(=O)c2cccc(NC=O)c2O)C(=O)O[C@@H](C)[C@@H]1OC(=O)C(C)C [compound 5, antimycin A2a, reference compound] | 0.78 ± 0.02 | 0.0079 ± 0.0003 | 0.15 | 2.1 | 0.32 | > 26 |  | 
CCCC[C@H]1C(=O)O[C@H](C)[C@H](NC(=O)c2cccc(NC=O)c2O)C(=O)O[C@@H](C)[C@@H]1OC(=O)C(C)C [compound 6, antimycin A4a, reference compound] | 0.79 ± 0.02 | 0.0037 ± 0.0003 | 0.12 | 3.7 | 0.44 |  |  | 
CCC(C)[C@@H]1OC(=O)[C@H](C)OC(=O)[C@@H](NC(=O)c2cccc(NC=O)c2O)[C@@H](C)OC(=O)[C@H](CC(C)C)OC(=O)C(C)(C)C(=O)[C@H](CC(C)C)NC1=O (stereo partly drawn) [compound 7, respirantin, reference compound] | 0.78 ± 0.02 | 0.0007 ± 0.0001 | 0.01 | 3.0 | 0.03 | > 33 |  | 
COc1cccc2c1C(=O)c1c(O)c3c(c(O)c1C2=O)C[C@@](O)(C(=O)CO)C[C@@H]3O[C@H]1C[C@H](N)[C@H](O)[C@H](C)O1 [doxorubicin] |  |  |  |  |  |  | 2.4 | 22
